Results: patent US20230285570A1, “THERAPEUTICALLY USEFUL CURE-PRO MOLECULES FOR E3 LIGASE MEDIATED DEGRADATION OF PROTEINS, AND METHODS OF MAKING AND USING THEM” (CORNELL UNIVERSITY, priority 2020, published 2023)
Entries after “also recorded” stand apart in the source; their conditions may differ. Each block holds one molecule with its values, some of them ahead of it.

Key:
Type in all cases: cell-based
[1] = test system: Namalwa cells; test: CellTiter-Glo cell viability, Namalwa cells; conditions: co-dosed 1:1 with CRBN ligand 8047, Namalwa, 72 h, 10 nM-10 μM
Description: CellTiter-Glo® 2.0 Cell Viability Assay (Promega) was carried out following the manufacturer's recommendations. Cells were seeded at a density of 1000 cells/well in a white 96 well plates (Corning, #3917) in a total volume of 100 μl with respective monomers, combinations of BRD ligands together with E3 ligase ligands or vehicle control treatment. After a 72 h incubation, 100 ul of the CellTiter-Glo® substrate was added per well and luminescence was read on a Spectramax M5 (Molecular Devices). Dose-response curves were generated using Graphpad Prism software.
Namalwa cells (1×10^4) were treated for 72 hours with the compounds solubilized in DMSO. Compounds were added at 10 nM-10 μM each. Cellular viability was determined using the CellTiter-Glo® Luminescent Cell Viability Assay (Promega) described above. FIG. 56 depicts the CURE-PRO-mediated loss of cellular viability for the BRD-E72 monomer (JQ1 derivatives comprising of boronic acid linkers), and the CRBN ligand, 8047 (a pomalidomide derivative comprising diol linkers) combined in a 1:1 ratio.

[2] = test system: caspase 3/7; test: Caspase-Glo 3/7 assay, Namalwa cells; conditions: 1:1 with CRBN ligand 8047, Namalwa, 24 h
Description: Caspase-glo® assay (Promega) was conducted following the manufacturer's recommendations. Cells were seeded at a density of 5000 cells/well in a white 96 well plates (Corning, #3917) in a total volume of 100 μl with respective monomers, combinations of BRD ligands together with E3 ligase ligands or vehicle control treatment. After a 24 h incubation, 100 μl of the […] substrate was added per well and luminescence was read on a Spectramax M5 (Molecular Devices).
Namalwa cells (5×10^4) were treated for 24 hours with the compounds solubilized in DMSO. FIG. 57 is a bar graph depiction of fold increase of apoptosis assessed via caspase 3/7 activity using the Caspase-Glo assay (Promega) described above.
Molm-13 (FIG. 76A) or Namalwa (FIG. 76B) cells (5×10^4) were treated for 24 hours with the compounds solubilized in DMSO in white 96 well plates (10 nM-10 μM solubilized in DMSO). FIG. 76 is a bar graph depiction of fold increase of apoptosis assessed via caspase 3/7 activity using the Caspase-Glo assay (Promega) described above.

[3] = biological target: T1, BRD4 (Homo sapiens, UniProt O60885); test: Summary of BRD4 degradation by CURE-PRO pairs, estimated from Western Blot or WES; set-up: endogenous in cells; conditions: Table 1, aryl-boronic acid BRD4 ligand + 8047
Outline: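 Namalwa, Ramos, HeLa, MCF7, HT29 or HCT116 cells treated 24 h with compounds in DMSO; RIPA lysates analysed by Western blot (ECL) or capillary WES immunodetection. Check mark denotes 30% to 70% or higher protein degradation.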

[4] = biological target: T1, BRD4; test: CURE-PRO-mediated BRD4 degradation in HeLa cells, Western blot; set-up: endogenous in cells; host or cells: HeLa; conditions: 24 h
Outline: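 HeLa cells (2.5×10^6) treated 24 h with DMSO-solubilized compounds, degrader pairs combined 1:1, at 1 nM-1 μM, 1-10 μM, 10 μM or 10 and 100 μM each depending on series. RIPA lysates (10-20 μg protein) run on SDS-PAGE and immunoblotted for BRD4 with ECL detection.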

[5] = biological target: T1, BRD4; test: CURE-PRO-mediated BRD4 degradation in HeLa cells, WES capillary electrophoresis (ProteinSimple); set-up: endogenous in cells; host or cells: HeLa
Description: All cell lines were purchased from ATCC or DSMZ and grown at 37° C. with 5% CO2. Human HeLa cells were cultured in complete growth medium (Dulbecco's modified Eagle's medium (DMEM) supplemented with 10% FBS); MCF7 cells were cultured in complete growth medium (Dulbecco's modified Eagle's medium (DMEM) supplemented with 10% FBS and 0.01 mg/ml human recombinant insulin (Sigma Aldrich); Namalwa and Ramos cells were cultured in complete growth medium (RPMI 1640 medium supplemented with 10% FBS); HCT116 and HT29 cells were cultured in complete growth medium (McCoy's 5a Medium supplemented with 10% FBS). For cellular degradation of BRD4 studies cells were seeded in a 12-well plate at 70-80% confluency, allowed to attach overnight, and incubated with the indicated compounds for the indicated time. When indicated, a 15-minute pretreatment with 10 μM pomalidomide, 10 μM VHL298, 10 μM Nutlin3a, 1 μM MG-132 or 1 μM Carfilzomib was performed before the addition of CURE-PROs. For washout studies, after CURE-PRO treatment, media was aspirated and incubated with complete medium for the indicated time before lysis.
WES Simple analysis was performed on WES system (ProteinSimple-Biotechne) according to the manufacturer's instructions. Total protein concentrations of cell lysates were determined by the Pierce BCA kit (Thermo Fisher). 3 μL of 0.3 μg/μL of the protein lysate was loaded onto a 12- to 230-kDa WES assay plate (ProteinSimple) where 300 nL sample was withdrawn through a capillary, subjected to electrophoretic separation of proteins by size, and followed by the simultaneous, HRP-based detection of proteins using the Anti-Rabbit Detection Module (Proteinsimple: #DM-001). The electropherograms were checked then the automatic peak detection was manually corrected if it was required.
HeLa cells (2.5×10^6) were treated for 4-24 hours with the compounds solubilized in DMSO. After 4 hours, indicated points were washed and cells were left in full growth media. Compounds were added at 10 μM each. Standardized protein samples were electrophoresed and imaged as described in the WES ProteinSimple section above. FIGS. 44 and 45 depict the time-dependence of CURE-PRO-mediated BRD4 degradation with the BRD-E52 ligand (FIG. 44) and BRD-E72 ligand (FIG. 45), both JQ1 derivatives comprising of boronic acid linkers, and the CRBN binding ligands (8046, 8047, and 8066), pomalidomide derivatives comprising diol linkers.
HeLa cells (2.5×10^6) were treated for 24 hours with the compounds solubilized in DMSO. Compounds were added at 100 nM-10 μM each. Standardized protein samples were electrophoresed and imaged as described in the WES ProteinSimple section above. FIG. 46 depicts the concentration-dependence of CURE-PRO-mediated BRD4 degradation and the requirement for monomer dimerization.

[6] = biological target: T2, CRBN (Homo sapiens, UniProt Q96SW2); test: CURE-PRO-mediated CRBN degradation in HeLa cells, Western blot; conditions: 24 h
T2 construct: endogenous in cells; host or cells: HeLa
Description: Namalwa, Ramosm HeLa, MCF7, or HT29 HCT116 cells (2.5-3×10^6) were treated for 24 hours with the indicated compounds solubilized in DMSO. The cells were washed in ice-cold PBS and were then lysed in RIPA lysis buffer (150 mM NaCl, 5 mM EDTA, 1% NP-40, 0.5% sodium deoxycholate, 0.1% SDS, 50 mM Tris, pH 8.0.) with Roche protease inhibitor complete cocktail and phosphatase inhibitors (10 mM sodium fluoride, 10 mM sodium pyrophosphate, 1 mM sodium orthovanadate and 20 mM β-glycerophosphate). The total protein concentrations were determined by Bradford Protein Assay (Pierce) and 10-20 μg of protein was loaded onto 4-15% Tris-Glycine gradient gels (Biorad). After standard gel electrophoresis, the separated proteins were transferred to PVDF membrane by wet transfer. The immunoblots were then blocked for 1 hour in 5% skim milk in TBST or 5% BSA in TBST, according to manufacturer's instructions, before an overnight incubation at 4° C. with indicated antibodies and membranes. […] Signal was detected with ECL Western Blotting Substrate (Pierce) and X-ray film processed with a Konica SRX-101 X-ray film processor or captured by Bio-Rad's Chemidoc Imaging system. […]

[7] = test system: HCT116 cells; test: MTT toxicity of E3 ligase CURE-PRO monomers, HCT116 cells; conditions: monomer alone, HCT116, 10 nM-30 μM, 24 h
Description: (§1) CURE-PRO ligands for the E3 ubiquitin ligases were assessed for toxicity by MTT assays as described above. CURE-PRO monomers (10 nM-30 μM) were solubilized in DMSO and added in triplicate to cells (1×10^5 cells/well) seeded in 96 well plates on the previous day. HCT116 (FIG. 105A), MCF7 (FIG. 105B), and HT29 cells (FIG. 105C) were treated with the CURE-PRO monomers for 24 h.

[8] = test system: HT29 cells; test: MTT toxicity of E3 ligase CURE-PRO monomers, HT29 cells; conditions: monomer alone, HT29, 10 nM-30 μM, 24 h
Description: as §1

T2 sequence (Q96SW2 whole entry): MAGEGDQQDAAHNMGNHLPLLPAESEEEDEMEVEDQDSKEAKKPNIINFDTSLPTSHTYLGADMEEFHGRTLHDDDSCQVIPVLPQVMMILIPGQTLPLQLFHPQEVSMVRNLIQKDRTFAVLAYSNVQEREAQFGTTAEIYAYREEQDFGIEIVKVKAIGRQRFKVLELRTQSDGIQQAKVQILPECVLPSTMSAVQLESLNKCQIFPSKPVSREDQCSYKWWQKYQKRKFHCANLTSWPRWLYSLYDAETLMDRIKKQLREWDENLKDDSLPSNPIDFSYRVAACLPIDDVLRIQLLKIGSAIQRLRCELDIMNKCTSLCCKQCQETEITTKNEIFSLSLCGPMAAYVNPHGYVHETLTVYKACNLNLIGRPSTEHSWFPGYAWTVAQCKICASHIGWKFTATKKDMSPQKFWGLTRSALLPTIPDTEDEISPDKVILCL

SMILES: CCNC(=O)C[C@@H]1N=C(c2ccc(Cl)cc2)c2cc(-c3cccc(B(O)O)c3)ccc2-n2c(C)nnc21 [BRD-E72, (3-((4S)-6-(4-chlorophenyl)-4-(2-(ethylamino)-2-oxoethyl)-1-methyl-4H-benzo[f][1,2,4]triazolo[4,3-a][1,4]diazepin-8-yl)phenyl)boronic acid]
loss of cellular viability versus monomer alone [1]: an increase in the loss of viability compared to monomer treatment alone; also recorded: marked loss in cell viability
caspase 3/7 activation [2]: demonstrates activation of caspase 3/7; also recorded: marked caspase activation
Degradation of BRD4, combination with CRBN ligand 8047 [3]: √ (A black check mark indicates efficacy of 30% to 70% or higher protein degradation)
BRD4 degradation after pomalidomide preincubation ([4]; 1:1 with 8047, 10 μM, pomalidomide preincubated 15 min at equimolar concentration): inhibition of CURE-PRO-mediated BRD4 degradation
BRD4 degradation ([4]; BRD ligand with pomalidomide (no 8047), HeLa, 10 μM): failed to induce BRD4 degradation
BRD4 degradation ([4]; co-treated 1:1 with CRBN ligand 8047, HeLa, 10 μM each): CURE-PRO-mediated degradation of BRD4
sustained BRD4 degradation after drugs are washed out ([5]; co-dosed with 8047, 10 μM each, washed after 4 h): up to 8 h
BRD4 degradation, time course ([5]; co-dosed with CRBN ligand 8047, HeLa, 10 μM each, 4-24 h): marked BRD4 degradation after 4 h

concentrations at which CRBN degradation is noted [6]: 10 to 100 µM
SMILES: CC(C)(O)C(=O)C(=O)NCc1cccc2c1C(=O)N(C1CCC(=O)NC1=O)C2=O (centres unmarked) [compound 8065]

SMILES: COc1ccc(C2=N[C@@H](c3ccc(Cl)cc3)[C@@H](c3ccc(Cl)cc3)N2C(=O)N2CCN(CCNC(=O)c3cccc(B(O)O)c3)C(=O)C2)c(OC(C)C)c1 [compound 8312, (3-((2-(4-((4S,5R)-4,5-bis(4-chlorophenyl)-2-(2-isopropoxy-4-methoxyphenyl)-4,5-dihydro-1H-imidazole-1-carbonyl)-2-oxopiperazin-1-yl)ethyl)carbamoyl)phenyl)boronic acid]
loss of viability (MTT) [7]: loss of viability only noted at higher concentrations (30 μM); also recorded: Toxicity at higher concentrations
loss of viability (MTT) [8]: loss of viability only noted at higher concentrations (30 μM); also recorded: Toxicity at higher concentrations
